Data published in US10800789B2, “Antiviral compounds” (Gilead Pharmasset LLC, priority 2012, dated 2020).
Like-named read-outs stand apart in the source and are kept apart here.

Tests used:
[1] = system: NS5A chimeric genotype 1b Con1 replicon with genotype 4a ED43 strain NS5A gene; assay: Replicon assay, genotype 4a NS5A chimera; format: cell-based, HCV; details: Hepatitis C virus
[2] = system: NS5A chimeric genotype 2a JFH-1 replicon with genotype 2b MD2b-1 strain NS5A gene (M31 present); assay: Replicon assay, genotype 2b NS5A chimera; format: cell-based, HCV; details: Hepatitis C virus
In short: (§1)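 Cells carrying the stable or transiently transfected (Huh-Lunet) dicistronic RLuc replicons received 3-fold serial compound dilutions from 10 mM DMSO stocks. After 72 h, cells were lysed and Renilla luciferase read. DMSO served as the no-inhibition control and ITMN-191 above 100×EC50 as the positive control; EC50 by non-linear regression.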

[3] = system: stable HCV 1a RLuc replicon cells (dicistronic genotype 1a H77 replicon); assay: Renilla luciferase HCV replicon reporter assay, genotype 1a; format: cell-based; details: Hepatitis C virus, 72 h, stable 1a H77 RLuc replicon cells
In short: as §1

[4] = system: NS5A chimeric genotype 2a JFH-1 replicon with genotype 2a J6 strain NS5A gene (M31 present); assay: Replicon assay, genotype 2a J6 NS5A chimera; format: cell-based, HCV; details: Hepatitis C virus
In short: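 First, 3-fold serial dilutions of compound went onto replicon cells, DMSO serving as no-inhibition control and ITMN-191 at >100×EC50 as positive control. Next came 72 h incubation, lysis and Renilla luciferase measurement. Finally, EC50 was calculated by non-linear regression; replicons covered genotypes 1a H77, 1b Con1, 2a JFH-1 (L31) and J6-NS5A chimera (M31).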

[5] = system: stable HCV 1b RLuc replicon cells (dicistronic genotype 1b Con1 replicon); assay: Renilla luciferase HCV replicon reporter assay, genotype 1b; format: cell-based; details: Hepatitis C virus, 72 h, stable 1b Con1 RLuc replicon cells, 72 hours; read-out: 1b
In short: as §1

[6] = system: stable HCV 2a JFH-1 Rluc replicon cells (L31 present in NS5A); assay: Renilla luciferase HCV replicon reporter assay, genotype 2a JFH-1; format: cell-based; details: Hepatitis C virus
In short: as §1

[7] = system: NS5A chimeric genotype 1b Con1 replicon with genotype 3a S52 strain NS5A gene; assay: Replicon assay, genotype 3a NS5A chimera; format: cell-based, HCV; details: Hepatitis C virus
[8] = read-out: 4a (s) (nM), genotype 4a NS5A chimeric replicon, stable replicon cells (s)
[9] = read-out: 4a (s), (s), activity range
[10] = 2BS, read-out: 2b (s), stably replicating replicon cells (s), activity range
[11] = read-out: 2b (s) (nM), genotype 2b MD2b-1 NS5A chimeric replicon (M31), stably replicating replicon cells (s)
[12] = read-out: 2a J6 (t) (nM), genotype 2a J6 NS5A chimeric replicon (M31), transiently transfected (t) into Huh-Lunet cells
[13] = read-out: 2a J6 (t), transiently transfected (t) into Huh-Lunet cells, activity range
[14] = read-out: 2a JFH (nM), genotype 2a JFH-1 replicon (L31 in NS5A), stable cells
[15] = read-out: 2a JFH, stable 2a JFH-1 Rluc replicon cells, L31 in NS5A, activity range
[16] = read-out: 3a (s) (nM), genotype 3a NS5A chimeric replicon, stable replicon cells (s)
[17] = read-out: 3a (s), (s), activity range

| SMILES | EC50 [1, 8] | EC50 [1, 9] | EC50 [2, 10] | EC50 [2, 11] | EC50 [3] | EC50 ([3]; activity range) | EC50 [4, 12] | EC50 [4, 13] | EC50 [5] | EC50 [6, 14] | EC50 [6, 15] | EC50 [7, 16] | EC50 [7, 17] |
| --- | --- | --- | --- | --- | --- | --- | --- | --- | --- | --- | --- | --- | --- |
| CC[C@H]1CC[C@@H](c2ncc(-c3ccc4c(c3)COc3cc5c(ccc6nc([C@@H]7C[C@@H]8CCC[C@@H]8N7C(=O)[C@@H](NC(=O)OC)C7CCOCC7)[nH]c65)cc3-4)[nH]2)N1C(=O)[C@@H](NC(=O)OC)C(C)C [IQ] | 0.021 nM | < 0.1 nM | < 0.1 nM | 0.069 nM | 0.018 nM | < 0.1 nM | 0.046 nM | < 0.1 nM | 0.019 nM | 0.023 nM | < 0.1 nM | 0.045 nM | < 0.1 nM |
| CC[C@H]1C[C@@H](c2ncc(-c3ccc4c(c3)COc3cc5c(ccc6nc([C@@H]7CC[C@H](C)N7C(=O)[C@@H](NC(=O)OC)C(C)C)[nH]c65)cc3-4)[nH]2)N(C(=O)[C@@H](NC(=O)OC)[C@@H](C)OC)C1 [GX] | 0.01 nM | < 0.1 nM | 1 to 44 nM | 1.18 nM | 0.016 nM | < 0.1 nM | 0.135 nM | 0.1 to 0.999 nM | 0.016 nM | 0.013 nM | < 0.1 nM | 0.106 nM | 0.1 to 0.999 nM |
| [2H]C([2H])([2H])C([2H])(C([2H])([2H])[2H])[C@]([2H])(NC(=O)OC)C(=O)N1[C@@H](C)CC[C@H]1c1ncc(-c2ccc3c(c2)COc2cc4c(ccc5nc([C@@H]6CC[C@H](C)N6C(=O)[C@@]([2H])(NC(=O)OC)C([2H])(C([2H])([2H])[2H])C([2H])([2H])[2H])[nH]c54)cc2-3)[nH]1 [HB] | 0.011 nM | < 0.1 nM | 0.1 to 0.999 nM | 0.49 nM | 0.012 nM | < 0.1 nM | 0.155 nM | 0.1 to 0.999 nM | 0.012 nM | 0.011 nM | < 0.1 nM | 0.038 nM | < 0.1 nM |
| COC(=O)N[C@@H](CO)C(=O)N1[C@@H](C)CC[C@H]1c1nc2ccc3cc4c(cc3c2[nH]1)OCc1cc(-c2cnc([C@@H]3CC[C@H](C)N3C(=O)[C@@H](NC(=O)OC)C(C)C)[nH]2)ccc1-4 [GZ] | 0.031 nM | < 0.1 nM | 1 to 44 nM | 1.15 nM | 0.042 nM | < 0.1 nM | 0.534 nM | 0.1 to 0.999 nM | 0.045 nM | 0.019 nM | < 0.1 nM | 0.158 nM | 0.1 to 0.999 nM |
| CC[C@H](C)[C@H](NC(=O)OC)C(=O)N1C[C@@H](C)C[C@H]1c1nc2ccc3cc4c(cc3c2[nH]1)OCc1cc(-c2cnc([C@@H]3CC[C@H](C)N3C(=O)[C@@H](NC(=O)OC)C(C)C)[nH]2)ccc1-4 [GR] | 0.025 nM | < 0.1 nM | 0.1 to 0.999 nM | 0.794 nM | 0.016 nM | < 0.1 nM | 0.198 nM | 0.1 to 0.999 nM | 0.022 nM | 0.025 nM | < 0.1 nM | 0.159 nM | 0.1 to 0.999 nM |
| CC[C@H](C)[C@H](NC(=O)OC)C(=O)N1C[C@@H](COC)C[C@H]1c1nc2ccc3cc4c(cc3c2[nH]1)OCc1cc(-c2cnc([C@@H]3CC[C@H](C)N3C(=O)[C@@H](NC(=O)OC)[C@@H](C)OC)[nH]2)ccc1-4 [ED, methyl{(2S,3S)-1-[(2S,4S)-2-(9-{2-[(2S,5S)-1-{(2S,3R)-3-methoxy-2-[(methoxycarbonyl)amino]butanoyl}-5-methylpyrrolidin-2-yl]-1H-imidazol-5-yl}-1,11-dihydroisochromeno[4′,3′:6,7]naphtho[1,2-d]imidazol-2-yl)-4-(methoxymethyl)pyrrolidin-1-yl]-3-methyl-1-oxopentan-2-yl}carbamate] | 0.025 nM | < 0.1 nM | 0.1 to 0.999 nM | 0.241 nM | 0.015 nM | < 0.1 nM | 0.021 nM | < 0.1 nM | 0.029 nM | 0.011 nM | < 0.1 nM | 0.099 nM | < 0.1 nM |
| CC[C@H](C)[C@H](NC(=O)OC)C(=O)N1[C@H](c2nc3ccc4cc5c(cc4c3[nH]2)OCc2cc(-c3cnc([C@@H]4CC[C@H](C)N4C(=O)[C@@H](NC(=O)OC)C4CCOCC4)[nH]3)ccc2-5)C[C@@H]2CCC[C@@H]21 [IO] | 0.03 nM | < 0.1 nM | 0.1 to 0.999 nM | 0.118 nM | 0.027 nM | < 0.1 nM | 0.07 nM | < 0.1 nM | 0.043 nM | 0.033 nM | < 0.1 nM | 0.293 nM | 0.1 to 0.999 nM |
| CC[C@H]1CC[C@@H](c2nc3ccc4cc5c(cc4c3[nH]2)OCc2cc(-c3cnc([C@@H]4CC[C@H](CC)N4C(=O)[C@@H](NC(=O)OC)C4CCOCC4)[nH]3)ccc2-5)N1C(=O)[C@@H](NC(=O)OC)C(C)C [II] | 0.016 nM | < 0.1 nM | 0.1 to 0.999 nM | 0.197 nM | 0.024 nM | < 0.1 nM | 0.209 nM | 0.1 to 0.999 nM | 0.033 nM | 0.029 nM | < 0.1 nM | 0.701 nM | 0.1 to 0.999 nM |
| CC[C@H]1CC[C@@H](c2nc3ccc4cc5c(cc4c3[nH]2)OCc2cc(-c3cnc([C@@H]4CC[C@H](C)N4C(=O)[C@@H](NC(=O)OC)C(C)C)[nH]3)ccc2-5)N1C(=O)[C@@H](NC(=O)OC)[C@@H](C)O [GS] | 0.017 nM | < 0.1 nM | 0.1 to 0.999 nM | 0.372 nM | 0.018 nM | < 0.1 nM | 0.116 nM | 0.1 to 0.999 nM | 0.021 nM | 0.017 nM | < 0.1 nM | 0.271 nM | 0.1 to 0.999 nM |
| CC[C@H]1C[C@@H](c2ncc(-c3ccc4c(c3)COc3cc5c(ccc6nc([C@@H]7CC[C@H](C)N7C(=O)[C@@H](NC(=O)OC)C(C)C)[nH]c65)cc3-4)[nH]2)N(C(=O)[C@@H](NC(=O)OC)C(C)C)C1 [GW] | 0.01 nM | < 0.1 nM | 1 to 44 nM | 2.41 nM | 0.017 nM | < 0.1 nM | 0.771 nM | 0.1 to 0.999 nM | 0.015 nM | 0.018 nM | < 0.1 nM | 0.127 nM | 0.1 to 0.999 nM |
| COC(=O)N[C@H](C(=O)N1CCC[C@H]1c1ncc(-c2ccc3c(c2)COc2cc4c(ccc5nc([C@@H]6CCCN6C(=O)[C@@H](NC(=O)OC)C6CCOCC6)[nH]c54)cc2-3)[nH]1)C1CCOCC1 [HI] | 0.111 nM | 0.1 to 0.999 nM | 0.1 to 0.999 nM | 0.203 nM | 0.203 nM | 0.1 to 0.999 nM | 0.2 nM | 0.1 to 0.999 nM | 0.416 nM | 0.041 nM | < 0.1 nM | 0.447 nM | 0.1 to 0.999 nM |
| CC[C@H]1CC[C@@H](c2ncc(-c3ccc4c(c3)COc3cc5c(ccc6nc([C@@H]7C[C@H](C)CN7C(=O)[C@@H](NC(=O)OC)[C@@H](C)OC)[nH]c65)cc3-4)[nH]2)N1C(=O)[C@@H](NC(=O)OC)C(C)C [GO] | 0.029 nM | < 0.1 nM | 0.1 to 0.999 nM | 0.775 nM | 0.021 nM | < 0.1 nM | 0.112 nM | 0.1 to 0.999 nM | 0.028 nM | 0.025 nM | < 0.1 nM | 1.28 nM | 1 to 44 nM |
| COC(=O)N[C@H](C(=O)N1[C@@H](C)CC[C@H]1c1ncc(-c2ccc3c(c2)COc2cc4c(ccc5nc([C@@H]6CC[C@H](C)N6C(=O)[C@@H](NC(=O)OC(C)(C)C)C(C)(C)O)[nH]c54)cc2-3)[nH]1)C(C)C [HV] | 1.27 nM | 1 to 44 nM | > 44 nM | ≥ 44.4 nM | 3.65 nM | 1 to 44 nM | ≥ 44.4 nM | > 44 nM | 0.091 nM | 1.87 nM | 1 to 44 nM | 12.6 nM | 1 to 44 nM |
| COC(=O)N[C@H](C(=O)N1[C@@H](C)CC[C@H]1c1ncc(-c2ccc3c(c2)COc2cc4c(ccc5nc([C@@H]6CC[C@H](C(C)C)N6C(=O)[C@@H](NC(=O)OC)C6CCOCC6)[nH]c54)cc2-3)[nH]1)C(C)C [ID] | 0.026 nM | < 0.1 nM | 1 to 44 nM | 1.81 nM | 0.035 nM | < 0.1 nM | 0.953 nM | 0.1 to 0.999 nM | 0.038 nM | 0.051 nM | < 0.1 nM | 0.801 nM | 0.1 to 0.999 nM |
